We go through four compounds from publication PMC12661293 (RSC Advances, 2025).

One assay has as its target α-glucosidase (Saccharomyces cerevisiae, UniProt P53341). The experiment in a line: In vitro α-glucosidase inhibitory assay. In kind it is biochemical. Particulars: for inhibition at 10 µM: read-out: %Inhibition at 10 µM; for inhibition at 40 µM: read-out: %Inhibition at 40 µM; for inhibition at 100 µM: read-out: %Inhibition at 100 µM; for inhibition at 140 µM: read-out: %Inhibition at 140 µM; for inhibition at 350 µM: read-out: %Inhibition at 350 µM; for inhibition at 400 µM: read-out: %Inhibition at 400 µM; for inhibition at 500 µM: read-out: %Inhibition at 500 µM.

The subject of assay [1] is ct-DNA. The assay is described as follows: Spectrophotometric. In kind it is binding, calf. The following applies: ligand fixed 50 µM, ct-DNA 0–80 µM, phosphate buffer pH 7.2.
Assay [2] deals with ct-DNA. The assay is described as follows: Cyclic voltammetry of ligands with ct-DNA. The format is binding, calf. Particulars: increasing ct-DNA 10–80 µM, phosphate buffer pH 7.2.
The target of the next assay is T1, α-amylase (Sus scrofa, UniProt P00690).
T1 sequence (P00690 16-511): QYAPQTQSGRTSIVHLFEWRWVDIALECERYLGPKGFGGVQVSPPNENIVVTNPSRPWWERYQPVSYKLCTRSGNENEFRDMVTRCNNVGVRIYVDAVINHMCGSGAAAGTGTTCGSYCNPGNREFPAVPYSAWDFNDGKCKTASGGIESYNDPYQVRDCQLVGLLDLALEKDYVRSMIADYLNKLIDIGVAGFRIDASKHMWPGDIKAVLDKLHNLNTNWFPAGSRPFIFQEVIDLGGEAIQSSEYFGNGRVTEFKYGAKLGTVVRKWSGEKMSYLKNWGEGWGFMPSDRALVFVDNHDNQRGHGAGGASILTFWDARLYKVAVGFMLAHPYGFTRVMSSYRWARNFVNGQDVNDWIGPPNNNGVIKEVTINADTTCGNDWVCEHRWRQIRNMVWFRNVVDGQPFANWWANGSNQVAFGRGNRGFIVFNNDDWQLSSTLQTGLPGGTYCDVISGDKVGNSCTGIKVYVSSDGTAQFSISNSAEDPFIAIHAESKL
The experiment in a line: In vitro α-amylase inhibitory assay. In kind it is biochemical, porcine. The following applies: for inhibition at 10 µM: read-out: %Inhibition at 10 µM; for inhibition at 40 µM: read-out: %Inhibition at 40 µM; for inhibition at 80 µM: read-out: %Inhibition at 80 µM; for inhibition at 140 µM: read-out: %Inhibition at 140 µM; for inhibition at 260 µM: read-out: %Inhibition at 260 µM; for inhibition at 400 µM: read-out: %Inhibition at 400 µM; for inhibition at 500 µM: read-out: %Inhibition at 500 µM.

Another assay deals with EB-ct-DNA. The assay is described as follows: Ethidium bromide displacement fluorescence quenching with ct-DNA. In kind it is binding, calf.

Sequence of α-glucosidase (P53341 whole entry): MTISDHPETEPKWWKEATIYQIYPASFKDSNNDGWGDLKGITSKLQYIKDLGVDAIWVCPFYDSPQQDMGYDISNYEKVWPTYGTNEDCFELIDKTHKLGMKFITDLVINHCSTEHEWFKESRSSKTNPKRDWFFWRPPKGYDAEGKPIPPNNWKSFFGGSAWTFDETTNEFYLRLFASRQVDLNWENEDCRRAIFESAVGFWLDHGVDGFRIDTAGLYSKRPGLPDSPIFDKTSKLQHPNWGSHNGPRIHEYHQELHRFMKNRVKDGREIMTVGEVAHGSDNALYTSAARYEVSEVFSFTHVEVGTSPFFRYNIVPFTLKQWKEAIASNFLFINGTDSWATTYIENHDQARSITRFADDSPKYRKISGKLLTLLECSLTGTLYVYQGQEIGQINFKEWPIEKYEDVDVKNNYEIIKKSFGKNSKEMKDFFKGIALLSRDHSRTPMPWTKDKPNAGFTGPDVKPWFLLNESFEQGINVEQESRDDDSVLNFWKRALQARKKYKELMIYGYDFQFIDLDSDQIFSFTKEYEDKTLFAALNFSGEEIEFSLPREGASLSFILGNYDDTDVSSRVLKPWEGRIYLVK

As a reminder, the IC50 is the concentration that inhibits the measured activity by half. Higher therefore signals weaker potency. As to `Cc1cccc(C=CC(=O)c2cnn(-c3ccccc3)c2C)c1` [L^I, 1-(5-methyl-1-phenyl-1H-pyrazol-4-yl)-3-(m-tolyl)prop-2-en-1-one], on α-glucosidase, the IC50 was 394 µM.

For orientation: inhibition means the drop in the measured response relative to a control, in per cent. As to `Cc1c(C(=O)C=Cc2cccc([N+](=O)[O-])c2)cnn1-c1ccccc1` [L^III, 1-(5-methyl-1-phenyl-1H-pyrazol-4-yl)-3-(3-nitrophenyl) prop-2-en-1-one], at α-glucosidase, the IC50 amounted to 281 µM, the inhibition at 10 µM stood at 9.36%, the inhibition at 40 µM came out at 10.8% and the inhibition at 100 µM amounted to 21.4%. Moreover, at α-glucosidase, the inhibition at 140 µM was 32.4%, the inhibition at 350 µM is 67%, the inhibition at 400 µM was found to be 71.5% and the inhibition at 500 µM was 74.1%. Moreover, in the assay on ct-DNA [1], the “Binding constant (kb)” value amounted to 15590 M⁻¹ and the Interaction mode entry was “Intercalative”. For the same compound, the “Binding mode from cyclic voltammetry” value in the assay with ct-DNA [2] is reported as “intercalation”. This compound returned a half-inhibitory concentration (IC50) at α-amylase (IC50 α-amylase) of 984 µM. Besides, at α-amylase, the inhibition at 10 µM was 9.1%, the inhibition at 40 µM was 9.5%, the inhibition at 80 µM is 11% and the inhibition at 140 µM came to 12%. Also, on α-amylase, the inhibition at 260 µM worked out at 16.8%, the inhibition at 400 µM worked out at 26% and the inhibition at 500 µM was found to be 28.9%. In the assay on EB-ct-DNA (Stern–Volmer), the “Quenching constant (Ksv)” value stood at 3030 M⁻¹. In addition, in the assay with EB-ct-DNA (modified Stern–Volmer), the “Binding constant (Kb)” value came out at 4315.8 M⁻¹.

In the case of `C[C@H]1O[C@H](O[C@H]2[C@H](O)[C@@H](O)[C@@H](O[C@H]3[C@H](O)[C@@H](O)C(O)O[C@@H]3CO)O[C@@H]2CO)[C@H](O)[C@@H](O)[C@@H]1N[C@H]1C=C(CO)[C@@H](O)[C@H](O)[C@H]1O` (stereo partly shown) [Acarbose, acarbose, reference compound], on α-glucosidase, the inhibition at 10 µM was found to be 2.9%, the inhibition at 40 µM was 9.44%, the inhibition at 100 µM is 13% and the inhibition at 140 µM was 16.2%. Besides, at α-glucosidase, the inhibition at 350 µM is 81.2%, the inhibition at 400 µM is 97.2% and the inhibition at 500 µM came to 97.7%. Besides, at α-amylase, the inhibition at 10 µM was found to be 1.2%, the inhibition at 40 µM stood at 1.6%, the inhibition at 80 µM was determined as 6% and the inhibition at 140 µM was 26.4%. Further, on α-amylase, the inhibition at 260 µM was found to be 39.8%, the inhibition at 400 µM came out at 65.1% and the inhibition at 500 µM stood at 74.8%.

On α-glucosidase, `Cc1c(C(=O)C=Cc2ccc(Cl)cc2Cl)cnn1-c1ccccc1` [L^II, 3-(2,4-dichlorophenyl)-1-(5-methyl-1-phenyl-1H-pyrazol-4-yl)prop-2-en-1-one] came in with an IC50 of 215 µM.
